Data: the supplement of paper PMC11061612

Assays:
[1] = system: SK-MEL-24 (Melanoma); test: Bliss excess, mean over the matrix (fraction); higher = more synergy
Summary of the method: (§1)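 Bliss excess equals the observed combination effect minus the expected value EA + EB − EA·EB, where EA and EB are the effects of each agent alone. Combination Emax is the second-highest inhibition within the matrix. Inhibition was scaled from CellTiter-Glo 2.0 luminescence, with 0 set by vehicle wells and 1 by blank wells, after 72 hours of two-drug dosing of cells plated in 1536-well plates.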

[2] = system: NCI-H1975 (Lung Adenocarcinoma); test: as above
Summary of the method: as §1

[3] = system: NCI-H2009 (Lung Adenocarcinoma); test: as above
Summary of the method: as §1

[4] = system: RPMI-8402 (T-Lymphoblastic Leukemia); test: as above
Summary of the method: as §1

[5] = system: NCI-H1648 (Lung Adenocarcinoma); test: as above
Summary of the method: as §1

[6] = system: JURL-MK1 (Chronic Myelogenous Leukemia); test: as above
Summary of the method: as §1

[7] = system: SNU-1 (Gastric Carcinoma); test: as above
Summary of the method: as §1

[8] = system: SBC-3 (Small Cell Lung Carcinoma); test: combination Emax (second highest fraction inhibited in the dose matrix, 72 h); higher = more inhibition; extreme values may be limits of the assay
Summary of the method: as §1

[9] = system: CAL-85-1 (Breast Carcinoma); test: as above
Summary of the method: as §1

[10] = system: A375 (Melanoma); test: as above
Summary of the method: as §1

[11] = system: MG-63 (Osteosarcoma); test: as above
Summary of the method: as §1

[12] = system: NCI-H1048 (Small Cell Lung Carcinoma); test: as above
Summary of the method: as §1

[13] = system: HT-3 (Cervical Carcinoma); test: as above
Summary of the method: as §1

[14] = system: NCI-H1648 (Lung Adenocarcinoma); test: as above
Summary of the method: as §1

[15] = system: OVKATE (Ovarian Carcinoma); test: as above
Summary of the method: as §1

[16] = system: SNU-1 (Gastric Carcinoma); test: as above
Summary of the method: as §1

[17] = system: NCI-H2023 (Non-Small Cell Lung Carcinoma); test: as above
Summary of the method: as §1

[18] = system: SW1463 (Colorectal Carcinoma); test: as above
Summary of the method: as §1

[19] = system: JJN-3 (Plasma Cell Myeloma); test: as above
Summary of the method: as §1

[20] = system: MRK-nu-1 (Breast Carcinoma); test: as above
Summary of the method: as §1

SMILES	Bliss excess [1]	Bliss excess [2]	Bliss excess [3]	Bliss excess [4]	Bliss excess [5]	Bliss excess [6]	Bliss excess [7]	combination Emax [8]	combination Emax [9]	combination Emax [10]	combination Emax [11]	combination Emax [12]	combination Emax [13]	combination Emax [14]	combination Emax [15]	combination Emax [16]	combination Emax [17]	combination Emax [18]	combination Emax [19]	combination Emax [20]
CN(CCO)CC[C@H](CSc1ccccc1)Nc1ccc(S(=O)(=O)NC(=O)c2ccc(N3CCC([C@@H](O)c4ccccc4-c4ccc(Cl)cc4)CC3)cc2)cc1S(=O)(=O)C(F)(F)F [AZD4320] + CN(C)CCCOc1ccc(-c2ccc3ncc4c(c3c2)n(C2CCOCC2)c(=O)n4C)cn1 [AZD0156] (first compound max 1 µM, 7x7, partner max 1 µM)	-0.0838	-0.0414	-0.0424	0.0188	-0.0326	-0.0368	0.0192	0.163	0.29	0.129	0.136	0.622	0.143	0.55	0.29	0.397	0.22	0.233	0.445	0.164
CN(CCO)CC[C@H](CSc1ccccc1)Nc1ccc(S(=O)(=O)NC(=O)c2ccc(N3CCC([C@@H](O)c4ccccc4-c4ccc(Cl)cc4)CC3)cc2)cc1S(=O)(=O)C(F)(F)F [AZD4320] + C[C@@H]1COCCN1C2=NC(=NC(=C2)C3(CC3)[S@](=N)(=O)C)C4=C5C=CNC5=NC=C4 [AZD6738] (first compound max 1 µM, 7x7, partner max 10 µM)	-0.0584	-0.0134	-0.0099	0.031	-0.0523	-0.0278	-0.0343	0.925	0.633	0.789	0.525	0.981	0.764	0.872	0.621	0.896	0.868	0.566	0.797	0.819
CN(CCO)CC[C@H](CSc1ccccc1)Nc1ccc(S(=O)(=O)NC(=O)c2ccc(N3CCC([C@@H](O)c4ccccc4-c4ccc(Cl)cc4)CC3)cc2)cc1S(=O)(=O)C(F)(F)F [AZD4320] + C[C@@H](Nc1cc(F)cc(F)c1)c1cc(C(=O)N(C)C)cc2c(=O)cc(N3CCOCC3)oc12 [AZD8186] (first compound max 1 µM, 7x7, partner max 3 µM)	-0.0354	0.0261	-0.0035	0.0715	0.0323	0.0149	-0.0024	0.979	0.668	0.519	0.375	0.962	0.237	0.812	0.438	0.877	0.351	0.27	0.497	0.589
CN(CCO)CC[C@H](CSc1ccccc1)Nc1ccc(S(=O)(=O)NC(=O)c2ccc(N3CCC([C@@H](O)c4ccccc4-c4ccc(Cl)cc4)CC3)cc2)cc1S(=O)(=O)C(F)(F)F [AZD4320] + Cn1cnc2c(F)c(Nc3ccc(Br)cc3Cl)c(C(=O)NOCCO)cc21 [Selumetinib] (first compound max 1 µM, 7x7, partner max 3 µM)	-0.0168	0.0125	-0.006	-0.0351	0.0177	0.0111	0.0212	0.981	0.683	0.749	0.365	0.992	0.257	0.83	0.501	0.952	0.268	0.534	0.731	0.562
COc1nnc2ccc(N3CCC(c4ccc(OCCN5CCN(C)C(=O)[C@H]5C)cc4)CC3)nn12 [AZD5153] + C=CCn1c(=O)c2cnc(Nc3ccc(N4CCN(C)CC4)cc3)nc2n1-c1cccc(C(C)(C)O)n1 [AZD1775] (first compound max 1 µM, partner max 1 µM)	-0.0421	0.0251	-0.0229	-0.0212	-0.0816	-0.0006	-0.0873	0.767	0.598	0.637	0.671	0.787	0.553	0.737	0.344	0.737	0.501	0.478	0.873	0.309
COc1nnc2ccc(N3CCC(c4ccc(OCCN5CCN(C)C(=O)[C@H]5C)cc4)CC3)nn12 [AZD5153] + CC1(C)CCC(CN2CCN(c3ccc(C(=O)NS(=O)(=O)c4ccc(NCC5CCOCC5)c([N+](=O)[O-])c4)c(Oc4cnc5[nH]ccc5c4)c3)CC2)=C(c2ccc(Cl)cc2)C1 [Venetoclax] (first compound max 1 µM, 7x7, partner max 1 µM)	-0.0685	-0.0579	-0.0432	0.0135	-0.062	-0.0676	-0.0523	0.721	0.674	0.44	0.646	0.492	0.278	0.68	0.35	0.645	0.378	0.581	0.892	0.468
COc1nnc2ccc(N3CCC(c4ccc(OCCN5CCN(C)C(=O)[C@H]5C)cc4)CC3)nn12 [AZD5153] + CCN(CCO)CCCOc1ccc2c(Nc3cc(CC(=O)Nc4cccc(F)c4)[nH]n3)ncnc2c1 [AZD2811] (first compound max 1 µM, 7x7, partner max 1 µM)	-0.102	-0.005	-0.0155	-0.031	-0.0494	-0.0258	0.0024	0.781	0.657	0.562	0.694	0.514	0.332	0.669	0.263	0.653	0.422	0.563	0.876	0.561
COc1nnc2ccc(N3CCC(c4ccc(OCCN5CCN(C)C(=O)[C@H]5C)cc4)CC3)nn12 [AZD5153] + C[C@@H]1COCCN1C2=NC(=NC(=C2)C3(CC3)[S@](=N)(=O)C)C4=C5C=CNC5=NC=C4 [AZD6738] (first compound max 1 µM, 7x7, partner max 10 µM)	-0.0037	-0.0013	0.081	-0.0209	-0.0572	0.0077	0.0228	0.784	0.734	0.774	0.757	0.678	0.601	0.821	0.324	0.823	0.7	0.555	0.964	0.814
COc1nnc2ccc(N3CCC(c4ccc(OCCN5CCN(C)C(=O)[C@H]5C)cc4)CC3)nn12 [AZD5153] + Cc1c2c(nn1C)CSCc1cc(n(C)n1)CSc1cc(c3ccccc3c1)OCCCc1c(C(=O)O)n(C)c3c-2c(Cl)ccc13 [AZD5991] (first compound max 1 µM, 7x7, partner max 1 µM)	-0.003	-0.0138	-0.0271	0.0279	-0.0712	-0.055	0.0194	0.753	0.779	0.606	0.697	0.627	0.911	0.818	0.333	0.976	0.47	0.581	1	1
COc1nnc2ccc(N3CCC(c4ccc(OCCN5CCN(C)C(=O)[C@H]5C)cc4)CC3)nn12 [AZD5153] + Cn1cnc2c(F)c(Nc3ccc(Br)cc3Cl)c(C(=O)NOCCO)cc21 [Selumetinib] (first compound max 1 µM, 7x7, partner max 10 µM)	-0.0003	-0.0045	-0.0123	-0.0608	0.0093	0.0397	0.063	0.699	0.687	0.868	0.689	0.449	0.399	0.88	0.26	0.71	0.316	0.732	0.955	0.306
Cc1c2c(nn1C)CSCc1cc(n(C)n1)CSc1cc(c3ccccc3c1)OCCCc1c(C(=O)O)n(C)c3c-2c(Cl)ccc13 [AZD5991] + C1CN(CCC1(C(=O)N[C@@H](CCO)C2=CC=C(C=C2)Cl)N)C3=NC=NC4=C3C=CN4 [Capivasertib] (first compound max 1 µM, 7x7, partner max 3 µM)	-0.0196	0.0322	-0.0207	0.0508	-0.0326	0.0028	-0.0176	0.334	0.145	0.2	0.228	1	0.307	0.906	0.273	0.613	0.299	0.216	1	1
Cc1c2c(nn1C)CSCc1cc(n(C)n1)CSc1cc(c3ccccc3c1)OCCCc1c(C(=O)O)n(C)c3c-2c(Cl)ccc13 [AZD5991] + C=CCn1c(=O)c2cnc(Nc3ccc(N4CCN(C)CC4)cc3)nc2n1-c1cccc(C(C)(C)O)n1 [AZD1775] (first compound max 1 µM, partner max 1 µM)	0.0416	-0.0523	-0.0051	-0.0295	-0.0359	0.0395	-0.0237	0.602	0.43	0.818	0.395	1	0.631	0.796	0.428	0.6	0.603	0.471	1	1
